In patent US8367692B2, “Spiro (piperidine-4,2′-pyrrolidine)-1-(3,5-trifluoromethyl phenyl) methylcarboxamides as NK1 tachikynin receptor antagonists” (Glaxo Wellcome Manufacturing Pte Ltd, priority 2008, dated 2013):

Experiments:
[1] = molecular target: T1, NK1 receptor (Meriones unguiculatus, UniProt Q5DUB1); assay: Gerbil foot tapping model (GR73632-induced, icv); type: in vivo
T1 construct: from tissue; host or cells: living gerbil, central nervous system (icv agonist challenge)
Source text: The ability of the compounds of the invention to penetrate the central nervous system and to bind at the NK1 receptor may be determined using the gerbil foot tapping model as described by Rupniak & Williams, Eur. Jour. of Pharmacol., 1994.
Intracerebroventricular (icv) administration of the NK1 receptor agonist GR73632 (R. M. Hagan et al., Neuropeptides 1991, 19 (2), 127-135) a characteristic hind leg foot tapping (GFT) response in gerbils which can be inhibited by potent NK1 receptor antagonists. The gerbil foot tapping paradigm was carried out as follows; gerbils were dosed with compound of the invention, and following an appropriate pre-treatment time were anaesthetised using isofluorane/oxygen mixture. The skull was then exposed and 5 ul of GR73632 (3 pmol conc.) was injected by insertion of a cuffed 25G needle to a depth of 4 mm below bregma, directly into the lateral ventricle (intracerebroventricular dosing). Immediately following the injection, gerbils were placed individually into a clear observation box to recover.
Upon the gerbil regaining its righting reflex, the duration of repetitive hind foot tapping was recorded over a 5 minute period. The dose of the test compound required to inhibit by 50% the tapping induced by the NK1 agonist expressed as mg/kg is referred to as the ID50 values.

[2] = molecular target: T2, human NK1 receptor (Homo sapiens, UniProt P25103); assay: NK1 functional assay (B), FLIPR inhibition of intracellular calcium release induced by Substance P; type: cell-based; conditions: U2OS cells transduced with BacMam virus expressing human NK1; ligand Substance P; read-out: binding potency pKi in the NK1 functional assay (B) (converted)
T2 construct: expressed in transfected cells; host or cells: human U2OS cells transiently transduced with recombinant BacMam virus
Source text: B) Measurement of NK Functional Potency:
Compounds of the invention were further characterised in a functional assay using FLIPR technology for the determination of their effect to inhibit the intracellular calcium release induced by interaction of NK receptors with its perspective ligands. Human U2OS cells transiently transduced with recombinant BacMam virus expressing human NK1, NK2 and NK3 receptors were used in the studies (see J. P. Condreay et al, Proc. Natl. Acad. Sci. USA 1999, 96(1): 127-132). Briefly, U20S cells were harvested from tissue culture flasks, re-suspended to a cell density of 200-300K/ml and mixed with recombinant BacMam virus carrying NKR gene in a virus/cell ratio of 1% (v/v). 10K-15K cells/well were then seeded in 384-well Greiner bio-one plate in culture medium (DMEM with 10% FBS), incubated overnight in 5% CO2 at 37° C. […] Finally, 10 uL/well of NKR ligands in assay buffer containing 0.1% BSA was added to the cells and fluorescence signal read on a FLIPR system. […] IC50 values of each compound were determined by an 11-point 3×-dilution inhibition curve. The potency each antagonist (fpKi) was calculated from plC50 by the Cheng-Prusoff equation using EC50 of ligand determined in a separate experiment.

T1 sequence (Q5DUB1 whole entry): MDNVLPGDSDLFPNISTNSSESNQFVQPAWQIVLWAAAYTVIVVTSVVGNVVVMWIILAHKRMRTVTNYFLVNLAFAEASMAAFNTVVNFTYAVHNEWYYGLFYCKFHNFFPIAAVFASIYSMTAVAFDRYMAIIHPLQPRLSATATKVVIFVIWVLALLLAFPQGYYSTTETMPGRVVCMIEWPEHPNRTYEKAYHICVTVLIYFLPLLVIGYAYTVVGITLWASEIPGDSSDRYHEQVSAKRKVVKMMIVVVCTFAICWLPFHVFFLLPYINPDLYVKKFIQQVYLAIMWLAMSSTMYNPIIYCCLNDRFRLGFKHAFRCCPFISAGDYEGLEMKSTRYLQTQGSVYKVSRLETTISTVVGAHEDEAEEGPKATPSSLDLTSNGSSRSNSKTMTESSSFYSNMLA
T2 sequence (P25103 whole entry): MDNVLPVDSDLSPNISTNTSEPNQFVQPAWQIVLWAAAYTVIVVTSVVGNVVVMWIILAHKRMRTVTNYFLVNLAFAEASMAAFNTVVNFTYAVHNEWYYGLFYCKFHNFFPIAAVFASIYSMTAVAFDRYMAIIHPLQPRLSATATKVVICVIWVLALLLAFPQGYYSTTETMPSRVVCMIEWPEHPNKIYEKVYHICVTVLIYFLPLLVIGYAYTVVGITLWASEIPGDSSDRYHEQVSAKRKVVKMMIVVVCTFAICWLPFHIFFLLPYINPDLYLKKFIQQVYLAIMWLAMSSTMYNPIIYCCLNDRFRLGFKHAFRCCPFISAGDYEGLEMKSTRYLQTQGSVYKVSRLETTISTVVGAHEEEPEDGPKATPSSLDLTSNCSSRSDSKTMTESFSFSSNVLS

| Compound | GR73632-induced Foot Tapping behaviour ([1]; dose range of 0.1 to 10 mg/kg p.o.) | ED50 ([1]; po, read-out: ID50, dose required to inhibit by 50% the tapping induced by the NK1 agonist) [mg/kg] | Ki [2] [nM] |
| --- | --- | --- | --- |
| Cc1cc(F)ccc1[C@H]1C[C@]2(CC[C@H](C(N)=O)N2)CCN1C(=O)N(C)[C@H](C)c1cc(C(F)(F)F)cc(C(F)(F)F)c1.Cl [Example 4, (2R,5S,7R)—N^8-{(1R)-1-[3,5-bis(trifluoromethyl)phenyl]ethyl}-7-(4-fluoro-2-methylphenyl)-N^8-methyl-1,8-diazaspiro[4.5]decane-2,8-dicarboxamide hydrochloride] | significantly attenuated | ~0.67 |  |
| Cc1cc(F)ccc1[C@H]1C[C@@]2(CCC(C(N)=O)N2)CCN1C(=O)N(C)[C@H](C)c1cc(C(F)(F)F)cc(C(F)(F)F)c1 (single isomer, unassigned; diastereoisomer 1) [Example 1] |  |  | < 1 |
